4 compounds from patent US11535599B2, “Benzisoxazole derivative” (Sumitomo Pharma Co., Ltd., priority 2020, dated 2022) can be followed below.

A short description of data set [1]: Shaking suspensions of crystalline forms in solvents (form conversion). Particulars: shaking forms I-III in several kinds of solvents for 9-11 days. The data set is classed as physicochemical. How it is done: Crystalline Example 13 of form III can be prepared by shaking a suspension of Example 13 in an organic solvent (e.g. ethanol, chloroform, acetonitrile, tetrahydrofuran, ethyl acetate, acetone, and tetrahydrofuran/heptane mixture (1:1)) at about 50° C. for 9-11 days. Or, it can be prepared by shaking a suspension of Example 13 in an organic solvent (e.g. acetonitrile, ethyl acetate, acetone, acetone/water mixture (1:1), and tetrahydrofuran/heptane mixture (1:1)) at about 25° C. for 9-11 days. Or, it can be prepared by shaking a suspension of a mixture of forms I and II of Example 13 in an organic solvent (e.g. ethanol, 2-propanol, chloroform, acetonitrile, tetrahydrofuran, ethyl acetate, acetone, and tetrahydrofuran/heptane mixture (1:1)) at about 50° C. for 9-11 days. Or, it can be prepared by shaking a suspension of a mixture of forms I and II of Example 13 in an organic solvent (e.g. 2-propanol, chloroform, acetonitrile, tetrahydrofuran, ethyl acetate, acetone, methanol/water mixture (1:1), 2-propanol/water mixture (1:1), acetone/water mixture (1:1), and tetrahydrofuran/heptane mixture (1:1)) at about 25° C. for 9-11 days. Or, it can be prepared by heating a solution of Example 13 in tert-butyl methyl ether at about 80° C. for about one hour, and leaving the solution to stand at room temperature for a day. […]

Data set [2] has as its system reserpine-induced Parkinson's disease model mouse. Put plainly: Potentiating effect of levodopa-induced hyperactivity in reserpine-induced Parkinson's disease model mouse. In kind it is in vivo. The following applies: Examples 12.5 or 25 mg/kg oral; rasagiline 3 or 10 mg/kg; with levodopa 200 mg/kg i.p. How it is done: Dopamine-depleted mice due to reserpine treatment are model mice of akinesia symptoms in Parkinson's disease, said symptoms are relieved with levodopa (L-DOPA). The effect of the present compounds for potentiating the levodopa's effect was tested.
In the present test, male Crl: CD1 (ICR) mice (CHARLES RIVER LABORATORIES JAPAN, INC.) were used. 20-24 hours before starting the movement measurement, reserpine (3 mg/kg) was intraperitoneally administered to the mouse. One hour before starting the movement measurement, the present compound (12-.5 mg/kg or 25 mg/kg of. Examples 1, 2, 3, 4, and 5) was orally administered to the mouse. Shortly before starting the movement measurement, levodopa (200 mg/kg) with benserazide whose amount was ¼ of levodopa in free form was intraperitoneally administered to the mouse. The movement measurement was carried out for 90 minutes, and each total movement was compared.

In data set [3] the test system is unilateral lesion model of nigrostriatal dopamine neuron induced with 6-OHDA. Put plainly: Extending duration of levodopa-induced rotational behavior in 6-OHDA unilateral lesion model. The following applies: Examples 10 or 30 mg/kg oral; rasagiline 0.6 mg/kg; with levodopa 5 mg/kg i.p. The data set is classed as in vivo, rat.
The test system of data set [4] is levodopa-induced dyskinesia in 6-OHDA unilateral lesion model. Briefly: Effect for inhibiting levodopa-induced dyskinesia. The data set is classed as in vivo, rat. The following applies: Examples 30 or 100 mg/kg, rasagiline 0.2 or 0.6 mg/kg, daily for two weeks. The text has this: A unilateral lesion model of nigrostriatal dopamine neuron induced with 6-hydroxydopamine (6-OHDA) is broadly used for evaluating the drug efficacy for treating Parkinson's disease, as mentioned in Test 2. In addition, it is known that dyskinesia is developed when the present model receives repetitive administration of levodopa, which is similar to the phenomenon that patients of Parkinson's disease who have received long-term administration of levodopa develop dyskinesia. With the present model, the effect of the present compound on the dyskinesia induced by repetitive administration of levodopa was evaluated. As shown in Test 2, a unilateral lesion model of nigrostriatal dopamine neuron was prepared. One day before starting the repetitive administration of levodopa, levodopa methyl ester hydrochloride (5.86 mg/kg) containing benserazide hydrochloride ([…]) (whose ratio was 4:1 in terms of free form) was intraperitoneally administered to the model, and the rotational behavior of the model was observed from 20 minutes to 140 minutes after the administration. The models were classified considering three factors of the total rotation number (20-140 minutes after the administration), the later term of the rotation (120-140 minutes after the administration), and the rotational duration, so that the dispersion of each group could be equal. Two days after the classification, the repetitive administration of levodopa methyl ester hydrochloride (6 mg/kg) and benserazide hydrochloride (12 mg/kg) once a day for two weeks was started. […] The evaluation of dyskinesia was done after one week and two weeks of the repetitive administration. […]

Data set [5] relates to oxaliplatin chemotherapy-induced peripheral neuropathy model. Briefly: Anti-allodynia effect in chemotherapy-induced peripheral neuropathy model (acetone test). The following applies: Example 13 100 mg/kg oral once a day 17 times; duloxetine 30 mg/kg oral single. The data set is classed as in vivo, rat. The text has this: As one of chemotherapy-induced peripheral neuropathy, sensory disturbance due to neuropathy caused by a platinating agent that is an anticancer agent such as cisplatin and oxaliplatin is known, and the symptom is difficult to be recovered even after the medication is discontinued. The therapeutic effect for sensory disturbance caused by repetitive administration of oxaliplatin was studied in the present test.
To male Crl: CD (SD) rats (7 weeks old) (CHARLES RIVER LABORATORIES JAPAN, INC.), oxaliplatin (5 mg/kg) was intraperitoneally administered for the two consecutive days in a week, totally 6 times, to prepare chemotherapy-induced peripheral neuropathy models. The compound of Example 13 (100 mg/kg) was repeatedly orally administered once a day, totally 17 times. […] In the acetone test, 0.1 mL of acetone was sprayed to the foot sole of the rat hind paw, and the reaction was evaluated according a scoring (Cold Score). When there was no reaction for 20 seconds after spraying acetone, Score 0 was recorded and the observation was stopped. When there was any reaction for the 20 seconds, the observation was continued until 40 seconds after spraying, and the score was recorded according to the evaluation scale. The acetone spray was done twice each for right and left hind paws, and the total score was calculated. […]

Data set [6] is described as follows: Dynamic vapor adsorption (DVS), hygroscopicity. In kind it is physicochemical. Particulars: 0-90% RH, 25° C. How it is done: Dynamic vapor adsorption: the hygroscopicity was evaluated with a dynamic vapor adsorption (DVS) instrument (IGAsorp, Hiden Isochema, Warrington, England) at room temperature. The water adsorption/desorption was studied as a function of relative humidity (RH) in the range of 0-90% at 25° C. The relative humidity in the chamber was made to increase by 10% RH, and the humidity was retained until the humidity state of the atmosphere and the weight variation of solid achieved equilibrium. The equilibration test was continued until the test was passed or failed 5 or 10 hours later. At this time point, RH increased by 10%, and the absorption process was repeated until the RH achieved to 90% RH and the humidity state achieved equilibrium. During the test, the moisture sorption was being monitored. For the desorption, the relative humidity was decreased in a similar manner to measure a perfect adsorption/desorption cycle. The cycle was repeated as appropriate. All the experiments were operated in dm/dt mode (weight variation over time) to determine each equilibrating endpoint. About 5-10 mg of the solid was used. The date analyses were carried out with Hisorp v4.02 (Hiden Isochema, Warrington, England).

Data set [7] is described as follows: Thermogravimetric analysis (TGA). In kind it is physicochemical. Particulars: until melting temperature. How it is done:
Thermogravimetric analysis: the thermogravimetric analysis (TGA) was carried out with a TGA instrument (TGA Q500, TA Instruments, New Castle, Del., USA). For each trial, about 1-10 mg of the solid sample was put in an open aluminium pot, and heated at a rate of 5-10° C./min under a nitrogen purge of 60 mL/min. The data analysis was carried out with Universal Analysis 2000 Version 4.1D (TA Instruments, New Castle, Del., USA).

Data set [8] can be described thus: Differential scanning calorimetry (DSC). In kind it is physicochemical. As to the method:
Differential scanning calorimetry: the thermal characteristic was evaluated with a differential scanning calorimetry (DSC) instrument (DSCQ1000, TA Instruments, New Castle, Del., USA). For each trial, about 1-10 mg of the solid sample was put in a standard aluminium pot aerated with a pinhole, and heated at a rate of 5-10° C./min under a nitrogen purge of 50 mL/min. The data analysis was carried out with Universal Analysis 2000 Version 4.1D (TA Instruments, New Castle, Del., USA).

Regarding `C[C@H](c1noc2ccccc12)S(N)(=O)=O` [Example 13 form III, (1R)-1-(1,2-benzoxazol-3-yl)ethane-1-sulfonamide], the “relative stability of crystalline forms” value in data set [1] is given as “most stable form”.

As to `C#CCN[C@@H]1CCc2ccccc21` [rasagiline, reference compound], in data set [2], the “levodopa-induced hyperactivity (total movement, 90 minutes)” value was “a tendency to increase the movement, but the increase had no statistically-significant difference”. Besides, in data set [3], the “rotational number in the late phase (100-120 minutes)” value was “significantly increased the rotational number in the late phase”. Also, in data set [4], the “dyskinesia induced by repetitive administration of levodopa (AIMS score)” value is “significantly got worse”.

As to `CNCC[C@H](Oc1cccc2ccccc12)c1cccs1` [duloxetine, reference compound], the “Cold Score in acetone test” value in data set [5] is on record as “significantly lower Cold Score”.

For the compound `C[C@H](c1noc2ccccc12)S(N)(=O)=O` [Example 13 form I, (1R)-1-(1,2-benzoxazol-3-yl)ethane-1-sulfonamide], in data set [6], the “weight variation in DVS” value was no more than 1%. Besides, the “weight reduction in TGA” value in data set [7] is on record as “no weight reduction”. In addition, in data set [8], the “crystalline stability (DSC)” value was “high”.
